These are literature values, as cited in patent US20260364080A1, “PYRAZOLO-PYRIMIDINONE COMPOUNDS FOR USE IN METHODS OF INHIBITING WEE1 A KINASE” (Acrivon Therapeutics, Inc., priority 2023, published 2026).

In one data set the test system is uterine serous carcinoma. Particulars: phase II study, women with uterine serous carcinoma; cited from earlier work.
In data set [1] the test system is RAS/TP53 mutated metastatic colorectal cancer. Particulars: cited from earlier work.

Consider `C=CCn1c(=O)c2cnc(Nc3ccc(N4CCN(C)CC4)cc3)nc2n1-c1cccc(C(C)(C)O)n1` [AZD1775, adavosertib], for which the clinical activity entry in the data set on uterine serous carcinoma is “promising results”. The “effect compared to active monitoring” value in data set [1] is listed as “shown effect compared to active monitoring”.
